# Data from the NIST ThermoML archive (doi:10.1016/j.fluid.2010.04.010).
# ± gives the expanded uncertainty stated by the source.
# Test: activity coefficient (dimensionless); of the first substance listed, at infinite dilution; xn = mol fraction of the nth substance listed
# Settings: 303.15 K; Liquid; Dilutor technique; x1 = 0
row,SMILES,activity coefficient
1,c1ccccc1 [benzene] + CCCCCC[n+]1cccc(C)c1.O=S(=O)([N-]S(=O)(=O)C(F)(F)F)C(F)(F)F,0.673 ± 0.004
2,c1ccccc1 [benzene] + CCCCCCn1cc[n+](C)c1.F[B-](F)(F)F,1.385 ± 0.004
3,C1=CCCCC1 [cyclohexene] + CCCCCC[n+]1cccc(C)c1.O=S(=O)([N-]S(=O)(=O)C(F)(F)F)C(F)(F)F,3.337 ± 0.004
4,C1=CCCCC1 [cyclohexene] + CCCCCCn1cc[n+](C)c1.F[B-](F)(F)F,7.74 ± 0.004

# Same assay, conditions: 313.15 K; Liquid; Dilutor technique; x1 = 0
row,SMILES,activity coefficient
1,c1ccccc1 [benzene] + CCCCCC[n+]1cccc(C)c1.O=S(=O)([N-]S(=O)(=O)C(F)(F)F)C(F)(F)F,0.683 ± 0.004
2,c1ccccc1 [benzene] + CCCCCCn1cc[n+](C)c1.F[B-](F)(F)F,1.446 ± 0.004
3,c1ccccc1 [benzene] + CCCCn1cc[n+](C)c1.F[B-](F)(F)F,2.341 ± 0.004
4,C1=CCCCC1 [cyclohexene] + CCCCCC[n+]1cccc(C)c1.O=S(=O)([N-]S(=O)(=O)C(F)(F)F)C(F)(F)F,3.205 ± 0.004
5,C1=CCCCC1 [cyclohexene] + CCCCCCn1cc[n+](C)c1.F[B-](F)(F)F,7.632 ± 0.004

# Same assay, conditions: 323.15 K; Liquid; Dilutor technique; x1 = 0
row,SMILES,activity coefficient
1,c1ccccc1 [benzene] + CCCCCC[n+]1cccc(C)c1.O=S(=O)([N-]S(=O)(=O)C(F)(F)F)C(F)(F)F,0.691 ± 0.004
2,c1ccccc1 [benzene] + CCCCCCn1cc[n+](C)c1.F[B-](F)(F)F,1.562 ± 0.004
3,c1ccccc1 [benzene] + CCCCn1cc[n+](C)c1.F[B-](F)(F)F,2.246 ± 0.004
4,C1=CCCCC1 [cyclohexene] + CCCCCC[n+]1cccc(C)c1.O=S(=O)([N-]S(=O)(=O)C(F)(F)F)C(F)(F)F,3.131 ± 0.004
5,C1=CCCCC1 [cyclohexene] + CCCCCCn1cc[n+](C)c1.F[B-](F)(F)F,7.496 ± 0.004

# Same assay, conditions: 333.15 K; Liquid; Dilutor technique; x1 = 0
row,SMILES,activity coefficient
1,c1ccccc1 [benzene] + CCCCCC[n+]1cccc(C)c1.O=S(=O)([N-]S(=O)(=O)C(F)(F)F)C(F)(F)F,0.701 ± 0.004
2,c1ccccc1 [benzene] + CCCCCCn1cc[n+](C)c1.F[B-](F)(F)F,1.912 ± 0.004
3,c1ccccc1 [benzene] + CCCCn1cc[n+](C)c1.F[B-](F)(F)F,2.218 ± 0.004
4,C1=CCCCC1 [cyclohexene] + CCCCCC[n+]1cccc(C)c1.O=S(=O)([N-]S(=O)(=O)C(F)(F)F)C(F)(F)F,3.018 ± 0.004
5,C1=CCCCC1 [cyclohexene] + CCCCCCn1cc[n+](C)c1.F[B-](F)(F)F,7.052 ± 0.004
